Earlier results in patent publication US20220152000A1, “PROLONGED RELEASE FORMULATION COMPRISING TACROLIMUS” (PHARMATHEN S.A., priority 2019, published 2022).
Values after ≈ are worked out from the molar mass of the structure shown.

Tests used:
[1] = simultaneous ingestion of food versus fasted
CYP3A4 isoenzyme = biological target: T1, CYP3A4 isoenzyme (Homo sapiens, UniProt P08684); settings: gut wall and liver
T1 construct: metabolized by the CYP3A4 isoenzyme in the gut wall and liver; from tissue; host or cells: gut wall and liver
T1 sequence (P08684 whole entry): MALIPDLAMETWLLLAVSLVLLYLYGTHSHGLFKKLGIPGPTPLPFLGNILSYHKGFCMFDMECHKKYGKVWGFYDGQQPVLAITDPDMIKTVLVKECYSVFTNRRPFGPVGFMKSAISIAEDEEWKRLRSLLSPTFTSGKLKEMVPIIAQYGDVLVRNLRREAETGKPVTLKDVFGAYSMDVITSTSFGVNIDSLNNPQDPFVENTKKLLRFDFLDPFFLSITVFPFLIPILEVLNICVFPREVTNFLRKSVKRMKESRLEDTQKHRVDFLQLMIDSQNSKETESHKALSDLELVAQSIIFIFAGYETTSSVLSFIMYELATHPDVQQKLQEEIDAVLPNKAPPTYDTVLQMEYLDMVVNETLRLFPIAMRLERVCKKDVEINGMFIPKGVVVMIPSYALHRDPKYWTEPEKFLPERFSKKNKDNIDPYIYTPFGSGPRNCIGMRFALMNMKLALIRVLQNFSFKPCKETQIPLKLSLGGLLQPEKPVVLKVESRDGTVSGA

In the case of C=CC[C@@H]1/C=C(\C)C[C@H](C)C[C@H](OC)[C@H]2O[C@@](O)(C(=O)C(=O)N3CCCC[C@H]3C(=O)O[C@H](/C(C)=C/[C@@H]3CC[C@@H](O)[C@H](OC)C3)[C@H](C)[C@@H](O)CC1=O)[C@H](C)C[C@@H]2OC [Tacrolimus], the Solubility in ethanol (ethanol) is given as 25 mg/mL (≈ 31.1 mM), the “Solubility in hexane, petroleum ether” value (hexane, petroleum ether) is given as “sparingly soluble” and the “Solubility in organic solvents” value (methanol, ethanol, acetone, ethyl acetate, diethyl ether, chloroform, dicloromethane) is given as “soluble”. The Solubility in water (water) was “insoluble”, the “Absorption after oral administration, effect of food” value [1] was “negatively influenced by simultaneous ingestion of food” and the “Metabolism by CYP3A4” value (CYP3A4 isoenzyme) was “extensively metabolized”.
